# Measurements from the supplement of paper PMC10307832.
# Assays:
# Test in all cases: relative viability (nuclei count vs DMSO), 5 days (fraction); higher = more cells survive
# [1] = compound: CCC1=CN=CN=C1N2CCN(CC2)CC3=NC4=C(N3)C=C(C=C4)C(F)(F)F + O=C(c1cc(Cc2n[nH]c(=O)c3ccccc23)ccc1F)N1CCN(C(=O)C2CC2)CC1 [Olaparib] (partner 8 µM)
# Method in brief: (§1)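 Dosing by pin tool came one day after lung cancer cell lines were seeded in 1536-well plates, using either one drug or a fixed anchor-drug dose plus five library-drug doses (not always all listed) in √10 steps. After 5 days, nuclei were counted on 4× images. Relative viability is treated-well nuclei count divided by vehicle-well nuclei count, and values are medians of duplicate plates.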
# [2] = compound: CCn1c(-c2nonc2N)nc2cnc(Oc3cccc(NC(=O)c4ccc(OCCN5CCOCC5)cc4)c3)cc21 + Cc1nc(Nc2ncc(C(=O)Nc3c(C)cccc3Cl)s2)cc(N2CCN(CCO)CC2)n1 [Dasatinib] (partner 0.075 µM)
# Method in brief: as §1
# [3] = compound: CCn1c(-c2nonc2N)nc2cnc(Oc3cccc(NC(=O)c4ccc(OCCN5CCOCC5)cc4)c3)cc21 + Cc1nc(NC(=O)N2CCC[C@H]2C(N)=O)sc1-c1ccnc(C(C)(C)C(F)(F)F)c1 [Alpelisib] (partner 2 µM)
# Method in brief: as §1
# [4] = compound: CCC1=CN=CN=C1N2CCN(CC2)CC3=NC4=C(N3)C=C(C=C4)C(F)(F)F + C[C@]1(O)C[C@@H](c2nc(-c3ccc4ccc(-c5ccccc5)nc4c3)c3c(N)nccn32)C1 [Linsitinib] (partner 1 µM)
# Method in brief: as §1
Cell Line,relative viability ([1]; first compound 0.04 µM),relative viability ([1]; first compound 0.1265 µM),relative viability ([1]; first compound 0.4 µM),relative viability ([1]; first compound 1.265 µM),relative viability ([1]; first compound 4 µM),relative viability ([2]; first compound 0.04 µM),relative viability ([2]; first compound 0.1265 µM),relative viability ([2]; first compound 0.4 µM),relative viability ([2]; first compound 1.265 µM),relative viability ([2]; first compound 4 µM),relative viability ([3]; first compound 0.04 µM),relative viability ([3]; first compound 0.1265 µM),relative viability ([3]; first compound 0.4 µM),relative viability ([3]; first compound 1.265 µM),relative viability ([3]; first compound 4 µM),relative viability ([4]; first compound 0.04 µM),relative viability ([4]; first compound 0.1265 µM),relative viability ([4]; first compound 0.4 µM),relative viability ([4]; first compound 4 µM),relative viability ([4]; first compound 1.265 µM)
NCI-H2170,0.632,0.574,0.571,0.537,0.601,0.553,0.676,0.665,0.515,0.443,0.748,0.747,0.912,0.719,0.817,–,–,–,–,–
HCC-366,0.38,0.355,0.29,0.349,0.335,0.699,0.504,0.0838,0.0451,0.0508,0.462,0.429,0.21,0.0494,0.031,0.907,0.595,0.525,0.661,–
NCI-H2405,0.898,0.874,0.821,–,0.919,0.239,0.166,0.158,0.135,0.139,0.893,0.425,0.368,0.326,0.274,0.958,1.01,0.833,1.02,–
COR-L 105,0.654,0.711,0.623,0.648,0.762,0.261,0.219,0.217,0.232,0.167,1.08,0.694,0.938,0.596,0.459,0.953,0.925,0.873,0.977,0.839
201T,0.816,0.831,0.866,0.814,0.853,0.644,0.682,0.443,0.588,0.506,1.02,1.01,0.966,1.05,0.954,0.922,1.04,0.998,1.01,0.88
NCI-H2228,–,0.608,0.551,0.658,0.488,0.592,0.519,0.431,0.407,0.421,1.14,0.998,0.776,0.732,0.644,0.343,0.629,0.814,0.689,0.576
LC-2-ad,0.733,0.644,0.661,0.653,0.636,0.957,0.717,0.343,0.309,0.479,0.945,0.542,0.797,0.658,0.515,0.818,0.87,0.765,0.788,0.813
NCI-H2085,0.717,0.692,0.728,0.777,0.72,0.307,0.308,0.396,0.251,0.223,1.15,0.959,0.86,0.869,0.845,0.911,0.787,0.982,0.793,0.823
NCI-H358,0.659,0.607,0.542,0.62,0.548,0.162,0.195,0.169,0.219,0.141,1.01,1.04,0.792,0.65,0.42,0.809,0.656,0.656,0.607,0.657
H3255,0.597,0.535,0.556,0.504,0.521,0.375,0.367,0.331,0.341,0.291,1.08,0.622,0.622,0.583,0.594,0.937,0.956,0.904,0.772,0.825
NCI-H23,0.353,0.4,0.29,0.345,0.243,0.927,0.758,0.294,0.611,0.543,0.874,0.831,–,0.604,0.495,0.681,0.689,0.59,0.638,0.623
CAL-12T,0.75,0.726,0.721,0.661,0.667,0.39,0.43,0.267,0.276,0.157,1.75,1.49,1.51,1.23,0.786,0.744,0.771,0.731,0.901,0.754
A-427,0.683,0.72,0.636,0.698,0.595,0.694,0.487,0.375,0.269,0.224,1.22,1.13,1.04,1.1,0.998,1.12,1.11,1.03,0.857,1.05
HARA,0.743,0.923,0.763,0.737,0.84,0.243,0.213,0.124,0.0816,0.074,0.831,0.797,0.756,0.395,0.485,0.915,0.832,0.919,0.831,0.733
NCI-H1793,0.736,0.754,0.697,0.564,0.784,0.385,0.284,0.208,0.183,0.194,0.639,0.671,0.662,0.652,0.599,1,0.677,0.825,0.895,–
NCI-H1623,–,–,–,–,–,0.655,0.797,0.529,0.543,0.606,–,–,–,–,–,–,–,–,–,–
NCI-H2009,0.647,0.649,0.632,0.578,0.594,0.266,0.144,0.136,0.148,0.152,1.01,0.987,0.857,0.745,0.5,1.16,1.19,1.21,1.17,1.2
ABC-1,–,–,0.646,0.649,0.536,0.54,0.51,0.414,0.311,0.372,1.35,0.691,0.877,0.877,0.487,0.873,0.777,0.676,0.831,0.631
IA-LM,0.649,0.838,0.812,0.703,0.765,–,–,–,–,–,1.17,0.929,0.871,0.825,0.687,0.664,0.617,0.568,0.464,0.45
NCI-H441,0.459,0.543,0.543,0.458,0.529,0.635,0.683,–,0.685,0.549,0.688,0.834,0.68,0.599,0.44,0.526,0.553,0.444,0.497,0.489

Cell Line,relative viability ([1]; first compound 0.04 µM),relative viability ([1]; first compound 0.1265 µM),relative viability ([1]; first compound 0.4 µM),relative viability ([1]; first compound 1.265 µM),relative viability ([1]; first compound 4 µM),relative viability ([2]; first compound 0.04 µM),relative viability ([2]; first compound 0.1265 µM),relative viability ([2]; first compound 0.4 µM),relative viability ([2]; first compound 1.265 µM),relative viability ([2]; first compound 4 µM),relative viability ([3]; first compound 0.04 µM),relative viability ([3]; first compound 0.1265 µM),relative viability ([3]; first compound 0.4 µM),relative viability ([3]; first compound 1.265 µM),relative viability ([3]; first compound 4 µM),relative viability ([4]; first compound 0.04 µM),relative viability ([4]; first compound 0.1265 µM),relative viability ([4]; first compound 0.4 µM),relative viability ([4]; first compound 4 µM),relative viability ([4]; first compound 1.265 µM)
NCI-H1792,0.895,0.406,0.369,–,0.399,0.954,0.514,–,0.405,0.488,0.84,0.773,–,0.551,0.629,0.522,0.543,0.497,0.511,0.424
LXF-289,1.08,1.01,1.05,1.02,0.933,0.158,0.111,0.0564,0.0848,0.0678,1.1,1.12,1,0.96,0.941,0.983,0.957,0.983,0.954,0.976
HCC-827,0.698,0.706,0.721,0.567,0.595,0.24,0.328,0.459,0.484,0.424,1.11,0.973,0.996,1.07,0.947,0.951,0.915,0.955,0.926,0.923
EMC-BAC-2,0.505,0.503,0.47,0.447,0.479,0.305,0.244,0.134,0.161,0.154,0.872,0.732,0.8,0.729,0.75,0.816,0.771,0.808,0.791,0.728
NCI-H596,0.737,0.64,0.575,0.649,0.747,0.682,0.611,0.495,0.469,0.546,0.482,0.51,0.612,0.49,0.55,1.14,1.08,1.09,1.02,1.06
NCI-H1755,0.915,0.903,0.856,0.82,0.75,0.373,0.257,0.15,0.206,0.186,0.975,1.01,0.923,0.872,0.882,1.02,0.938,0.955,0.944,0.948
SW 900,0.928,0.764,0.863,–,0.82,0.413,0.456,0.312,0.42,0.41,–,–,–,–,–,–,–,–,–,–
NCI-H1299,0.942,0.969,0.975,0.982,0.949,–,–,–,–,–,0.991,0.891,0.836,0.912,0.861,1.05,0.935,0.979,0.955,0.968
NCI-H1563,–,–,–,–,–,0.447,0.452,0.343,0.461,0.456,0.96,0.878,0.825,0.766,0.712,1.27,1.24,1.27,1.1,1.18
NCI-H1650,0.682,0.797,0.708,0.642,0.907,0.324,0.36,0.371,0.398,0.363,–,–,–,–,–,–,–,–,–,–
Calu-6,0.681,0.591,0.523,0.556,0.483,–,–,–,–,–,0.861,0.827,0.582,0.477,0.455,0.883,0.851,0.871,1.02,0.819
NCI-H1703,0.511,0.536,0.397,0.332,0.396,–,–,–,–,–,0.385,0.428,0.254,0.209,0.164,0.595,0.669,0.851,0.771,0.473
EBC-1,0.691,0.644,0.688,0.675,0.699,–,–,–,–,–,1.02,0.767,0.678,0.733,0.557,0.996,0.811,0.782,0.897,0.759
NCI-H2342,0.51,0.402,0.384,0.275,0.34,0.332,0.319,0.294,0.289,0.302,–,–,–,–,–,–,–,–,–,–
ChaGo-K-1,0.392,0.39,0.457,0.431,0.381,0.592,0.442,0.365,0.394,0.395,–,–,–,–,–,–,–,–,–,–
HCC-44,1.02,0.963,0.978,0.99,0.966,–,–,–,–,–,0.816,0.896,0.659,0.456,0.344,0.652,0.648,0.666,0.634,0.643
NCI-H1648,0.985,–,–,0.558,0.673,–,–,–,–,–,–,–,–,–,–,–,–,–,–,–
NCI-H522,0.601,0.613,0.573,0.526,0.558,0.735,0.797,0.656,0.614,0.667,–,–,–,–,–,–,–,–,–,–
A549,0.318,0.179,0.333,0.333,0.387,–,–,–,–,–,0.986,0.785,0.426,0.23,0.0785,0.596,0.549,0.629,0.615,0.28
